Data as given in US11932654B2, “Nimbolide analogs as anti-cancer agents and preparation thereof” (priority 2018, dated 2024).

Legend:
[1] = tested on: DU-145 prostate cancer cell line; test: In vitro anticancer activity, SRB assay, DU-145; type: cell-based; settings: Homo sapiens, 48 h, NA = Not Active
Procedure: (§1) Cell culture: Human lung adenocarcinoma cell line (A549 cell line), pancreatic cancer cell line (Panc-1, Pan-02), prostate cancer cell line (DU145, PC3), Brest cancer cell line (MCF-7) was grown in DIEM (Dulbecco's modifications of eagle's medium with L-glutamine & 4.5 g/L glucose) supplemented with fetal bovine serum in a humidified atmosphere of a 5% CO2 at 37° C.
(§2) In vitro anticancer activity: Cells were harvested from exponential phase cultures by trypsinization, counted and plated in 96-well plate. Optimal seeding densities for different cell lines in each plate were 5000 cells per well. After 24 h cells were treated with \ the newly synthesized compound at a dose range of 0.1-100 μm final concentration. Thereafter, cells were allowed to grow for 48 h before determination of cell survival by the SRB assay. Then the cells were fixed with 10% cold trichloroacetic acid for 1 h at 4° C. After two washes with deionized water, fixed cells were stained with 50 μL of SRB solution (1% in acetic acid) for 30 min and subsequently washed twice with 1% acetic acid to remove unbound stain. The plates were left to dry at room temperature and bound stain was solubilized with 100 μL of 10 mM buffered Tris base for reading the […] at 540 nm.

[2] = tested on: A549 lung adenocarcinoma cell line; test: In vitro anticancer activity, SRB assay, A549; type: cell-based; settings: Homo sapiens, 48 h, NA = Not Active
Procedure: as §1, §2

[3] = tested on: MCF-7 breast cancer cell line; test: In vitro anticancer activity, SRB assay, MCF-7; type: cell-based; settings: Homo sapiens, MCF7, 48 h, NA = Not Active
Procedure: as §1, §2

[4] = tested on: Pan-02 pancreatic cancer cell line; test: In vitro anticancer activity, SRB assay, Pan-02; type: cell-based; settings: Pan02, 48 h
Procedure: as §1, §2

caspase-3 = test: Caspase assay activity, caspase-3, Panc-1 cells; type: cell-based; settings: fluorimetric assay, increasing concentrations
Procedure: Caspase assay activity: Caspase-3, caspase-8 and caspase-9 protease activities were determined using a commercial fluorescence assay kit according to the manufacturer's instructions, Briefly, pancreatic cancer cells were treated with different concentrations of IM-1372-Kn-13 for 24 h were re-suspended in 50 μL of chilled cell lysis buffer; cells were then incubated on ice for 10 min and centrifuged for 1 min in a micro-centrifuge (10,000 g). Then supernatants were transferred (cytosolic extract) to a fresh tube and protein concentration was assayed. Next, diluted 100 μg protein was added to 50 μL cell lysis buffer for each assay. Subsequently, 50 μL of 2× reaction buffer and 5 μL of the 4 mM Ac-DEVD AMC (caspase-3)/Ac-VETD-AMC (caspase-8)/[…] were added and incubated at 37° C. for 2 h (samples read at […] in a microtiter plate reader).

[5] = tested on: Pan-02 cells xenograft tumors; test: Pancreatic cancer xenograft model, anti-tumor activity; type: in vivo, nude mice; settings: for Tumor Volume: 5 doses in 12 days, Pan-02 xenograft, mean ± SE
Procedure: In vivo studies: Materials and methods: Animals and cell lines: Healthy 8-10 week old nude mice of either sex, weighing between 20 g and 25 g were used as experimental animals for tumor induction. All animals were maintained under standardized animal house conditions (12 h light and 12 h dark condition) at controlled temperature (22±1° C.) and relative humidity (60-70%) in institutional registered animal house that was approved by Committee for the Purpose of Control and Supervision of Experiments on Animals (CPCSEA). They were maintained with standard pellet diet and water ad libitum. The institutional animal ethics committee approved the experimental protocol. CPCSEA guidelines were adhered to during the maintenance of animals and experiments. Pancreatic cancer cell line (Pan-02) was obtained from American Type Culture Collection and was cultured in RPMI medium.
(§3) Establishment of Pancreatic cancer xenograft model: To establish tumor in mice, Pan-02 cells (7×10^6) were suspended in 1:1 RPMI medium mixed with matrigel and subcutaneously implanted on right flank of the each mice. The injection sites were examined daily for the appearance of tumors. On 10th day these animals were randomized and divided into 3 groups (6 mice in each group). Group I served as control group received 20% ethanol three times in a week. Test group animals in Group II and III received intratumoral injection of IM-1372-Kn-13 at 10 mg and 25 mg/kg body weight respectively three times in a week. All groups received 5 repeated doses in 12 days. Mice were weighed and tumor volumes were measured 3 times a week by Vernier caliper. Tumor volume in individual mice was calculated by the following formula. 0.5×L (W)^2, Where L is length, W is width of the tumor. The control group animals were euthanized when tumor volume is reached heavier to animal. One-week after completion of treatment period, the animals were sacrificed, and tumors were excised, fixed, and embedded in paraffin. At the end of treatment, blood samples were collected to perform clinical biochemistry.

[6] = tested on: Pan-02 cells xenograft tumors; test: Histopathological examination of tumors and organs of xenograft mice; type: in vivo, nude mice
Procedure: as §3

[7] = Biochemical analysis of serum of tumor xenograft mice; type: in vivo, nude mice; settings: for Albumin / Alkaline phosphatase / Creatinine / Glucose / SGOT / SGPT / Total protein / Urea: xenograft mice, mean ± SE
Procedure: as §3
Biochemical analysis: In acute toxicity experiment, blood samples were collected from all the animals 1 week after the last dose and mice were sacrificed by cervical decapitation. The obtained serum was analyzed in clinical chemistry for the assessment of liver function tests (LFT), activity of serum alkaline phosphatase (ALP), alanine aminotransferase (ALT), aspartate aminotransferase (AST), kidney function tests (RFT) (serum urea and creatinine). The same tests were performed for serum samples collected from three groups of tumor xenograft mice used for determining in vivo activity of test compound against pancreatic cancer. The measurement of these biochemical parameters was done in Clinical Biochemical analyzer (Tulip coralab 3000™).

COC(=O)C[C@H]1[C@]2(C)C3=C(C)[C@H](C4=CC5OC4C(C(=O)OC)=C5C(=O)OC)C[C@@H]3O[C@@H]2[C@@H]2OC(=O)[C@]3(C)C=CC(=O)[C@@]1(C)C23 (some centres unmarked) [A4]
IC50 [1]: 0.58 µM | IC50 [2]: 4.54 µM | IC50 [3]: 12.5 µM | IC50 [4]: 0.52 µM | activity of caspase-3 (caspase-3): increased significantly in a dose-dependent manner | Tumor Volume ([5]; 10 mg/kg intratumoral, nude mice): 181.306 ± 12.7 mm^3 | body weight and food intake ([5]; 10 mg/kg, 25 mg/kg body weight, intratumoral, nude mice): did not cause any loss in body weight and food intake | Tumor Volume ([5]; 25 mg/kg intratumoral, nude mice): 109.46 ± 7.1 mm^3 | average volume of tumors compared to vehicle-treated animals ([5]; 10 and 25 mg/kg intratumoral, p<0.0001): significantly decreased | animals showing liver metastasis ([6]; printed 'group I' (control group: 50%)): 10 % of animals | metastatic invasion in liver, kidney and spleen ([6]; printed 'group II'): no metastatic invasion was found | liver metastasis in treated animals ([6]; treated xenograft animals vs control group): no liver metastasis | effect on the other tissues of xenograft mice ([6]; xenograft mice, intratumoral): did not show any effect | serum total protein and albumin levels ([7]; group II and III compared to control group I): significantly increased | serum ALT, AST and ALP enzyme activities ([7]; treated xenograft groups vs elevated control group I): returned to normal | elevated levels of serum urea and creatinine ([7]; tumor-bearing mice, compared to group I): significantly fetched down | Albumin ([7]; 10 mg/kg): 3.16 ± 0.2 g/dL | Alkaline phosphatase ([7]; 10 mg/kg): 685.26 ± 28.8 U/L | Creatinine ([7]; 10 mg/kg): 1.56 ± 0.4 mg/dL | Glucose ([7]; 10 mg/kg): 77.60 ± 3.0 mg/dL | SGOT ([7]; 10 mg/kg): 56.12 ± 5.8 U/L | SGPT ([7]; 10 mg/kg): 47.05 ± 5.8 U/L | Total protein ([7]; 10 mg/kg): 6.24 ± 0.5 g/dL | Urea ([7]; 10 mg/kg): 46.81 ± 5.8 mg/dL | Albumin ([7]; 25 mg/kg): 3.61 ± 0.1 g/dL | Alkaline phosphatase ([7]; 25 mg/kg): 545.63 ± 24.9 U/L | Creatinine ([7]; 25 mg/kg): 0.80 ± 0.1 mg/dL | Glucose ([7]; 25 mg/kg): 108.42 ± 4.7 mg/dL | SGOT ([7]; 25 mg/kg): 32.20 ± 2.4 U/L | SGPT ([7]; 25 mg/kg): 24.49 ± 4.0 U/L | Total protein ([7]; 25 mg/kg): 8.05 ± 0.3 g/dL | Urea ([7]; 25 mg/kg): 41.23 ± 3.7 mg/dL
